According to patent US20250171434A1, “SEC61 INHIBITORS AND USE THEREOF” (KEZAR LIFE SCIENCES, INC., priority 2022, published 2025):

How the values were obtained:
[1] = tested on: multiple myeloma cell line U266B1; assay: U266 Cell Viability Assay; assay type: cell-based; conditions: Homo sapiens, U-266; U266B1 cells, 48 hours, Celltiter-Glo; read-out: 48 hr U266 Viability Celltiter-Glo: Mean EC50
Protocol: (§1) The human multiple myeloma cell line U266B1 was cultured in RPMI 1640 media supplemented with 10% fetal bovine serum, 2 mM Glutamine, and 1× Penicillin/Streptomycin. Cells were plated in 384-well tissue culture plates and treated with compound dilutions in DMSO/media. Plates were incubated at 37° C., 5% CO2 for 48 hours. After 48 hours, Celltiter-Glo® (Promega) was added to each well and luciferase signal was quantified using Tecan Infinite M1000 Pro for cell viability determination.
(§2) For chemical structures that include one or more stereoisomers, but are illustrated without indicating stereochemistry, the assay data refers to a mixture of stereoisomers.

[2] = tested on: IL6R-ss+10aa/Gaussia Luciferase; assay: Dox-induced IL-6R-ss-Gluc Assay; assay type: cell-based; conditions: Table 1; for IC50: Flp-In 293 T-REx cells, 24 hours with doxycycline, read-out: 24hr Dox Inducible IL6R(ss + 10)Gluc 293FRT/TO: Mean IC50; for 24hr Dox Inducible IL6R(ss + 10)Gluc 293FRT/TO: IL6R/PD1: ratio of IC50s IL6R/PD1
Source text: Flp-In 293 T-REx™ cells were transfected with pcDNATM5/FRT/TO plasmid inserted with cDNA encoding Gaussia Luciferase fused to the 3′ end of cDNA encoding IL6R signal sequence plus 10 amino acids (N-[…]-C). Transfected cells were selected for resistance to the selectable markers Hygromycin and Blasticidin to create a stable cell line that contained the IL6R-ss+10aa/Gaussia Luciferase cDNA insert whose expression was regulated under the T-REx™ system. The day before assay, cells were trypsinized and plated in 384-well tissue culture plates. The next day, compound dilutions in DMSO/media containing doxycycline were added to the wells and incubated at 37° C., 5% CO2.
as §2

[3] = tested on: multiple myeloma cell line NCI-H929; assay: H929 Cell Viability Assay; assay type: cell-based, human; conditions: NCI-H929 cells, 48 hours, Celltiter-Glo; for EC50: Homo sapiens, read-out: 48 hr H929 Viability Celltiter-Glo: Mean EC50
Protocol: as §1, with “NCI-H929” for “U266B1”, “cultured in Advanced RPMI 1640 media (Gibco®) supplemented with 6% fetal bovine serum, 2 mM Glutamine, and 1× Penicillin/Streptomycin. On the day of assay, cells were resuspended” for “cultured”, “Penicillin/Streptomycin and” for “Penicillin/Streptomycin. Cells were”
as §2

[4] = Liver Microsome Stability Assay, monkey; assay type: in vitro ADME; conditions: monkey liver microsomes 1.0 mg/mL, 1.0 uM compound, 37° C., 1 mM NADPH
Protocol: (§3) Stability of a compound was assessed in the presence of liver microsomes from various sources—mouse, rat, monkey and human liver microsomes. 1.0 uM compound, 0.4% DMSO in 0.1 M Potassium Phosphate with 1.0 mg/mL liver microsomes, were incubated at 37° C. with or without 1 mM NADPH. The samples were quenched at 0, and 30 minutes.

[5] = Liver Microsome Stability Assay, human; assay type: in vitro ADME; conditions: human liver microsomes 1.0 mg/mL, 1.0 uM compound, 37° C., 1 mM NADPH
Protocol: as §3

[6] = Liver Microsome Stability Assay, mouse; assay type: in vitro ADME; conditions: mouse liver microsomes 1.0 mg/mL, 1.0 uM compound, 37° C., 1 mM NADPH
Protocol: as §3

CD47(ss + 10)Gluc = assay: Dox-Induced CD47-ss-Gluc Assay; assay type: cell-based; conditions: Flp-In 293 T-REx cells, 24 hours with doxycycline; Table 1; read-out: 24 hr Dox Inducible CD47(ss + 10)Gluc 293FRT/TO: Mean IC50
[7] = Liver Microsome Stability Assay, rat; assay type: in vitro ADME; conditions: rat liver microsomes 1.0 mg/mL, 1.0 uM compound, 37° C., 1 mM NADPH
Protocol: as §3

[8] = tested on: PD1-ss+10aa/Gaussia Luciferase; assay: Dox-Induced PD1-ss-Gluc Assay; assay type: cell-based; conditions: Flp-In 293 T-REx cells, 24 hours with doxycycline; Table 1; read-out: 24 hr Dox Inducible PD1ssGluc 293FRT/TO: Mean IC50
Source text: Flp-In 293 T-REx™ cells were transfected with pcDNA™5/FRT/TO plasmid inserted with cDNA encoding Gaussia Luciferase fused to the 3′ end of cDNA encoding PD1 signal sequence plus 10 amino acids (N-[…]-C) (SEQ ID NO: 1). Transfected cells were selected for resistance to the selectable markers Hygromycin and Blasticidin to create a stable cell line that contained the PD1-ss+10aa/Gaussia Luciferase cDNA insert whose expression was regulated under the T-REx™ system. The day before assay, cells were trypsinized and plated in 384-well tissue culture plates. The next day, compound dilutions in DMSO/media containing doxycycline were added to the wells and incubated at 37° C., 5% CO2.
as §2

[9] = tested on: IL-2-FL/Gaussia Luciferase; assay: Dox Inducible IL2-FL-Gluc Assay; assay type: cell-based; conditions: Table 1; for IC50: Flp-In 293 T-REx cells, 24 hours with doxycycline, read-out: 24 hr Dox Inducible IL2FLGluc 293FRT/TO: Mean IC50; for 24 hr Dox Inducible IL2FLGluc 293FRT/TO: IL2/PD1: ratio of IC50s IL2/PD1
Source text: Flp-In 293 T-REx™ cells were transfected with pcDNA™5/FRT/TO plasmid inserted with cDNA encoding Gaussia Luciferase fused to the 3′ end of cDNA encoding full length IL-2 (amino acids 1-153). Transfected cells were selected for resistance to the selectable markers Hygromycin and Blasticidin to create a stable cell line that contained the IL-2-FL/Gaussia Luciferase cDNA insert whose expression was regulated under the T-REx™ system. The day before assay, cells were trypsinized and plated in 384-well tissue culture plates. The next day, compound dilutions in DMSO/media containing doxycycline were added to the wells and incubated at 37° C., 5% CO2.
as §2

| SMILES | EC50 [1] [µM] | IC50 [2] [µM] | 24hr Dox Inducible IL6R(ss + 10)Gluc 293FRT/TO: IL6R/PD1 [2] | EC50 [3] [µM] | Liver Microsome Stability (Multiple Species): Monkey - % Remaining after 30 min w/ NADPH (%) [4] [%] | Liver Microsome Stability (Multiple Species): Human - % Remaining after 30 min w/ NADPH (%) [5] [%] | Liver Microsome Stability (Multiple Species): Mouse - % Remaining after 30 min w/ NADPH (%) [6] [%] | IC50 (CD47(ss + 10)Gluc) [µM] | Liver Microsome Stability (Multiple Species): Rat - % Remaining after 30 min w/ NADPH (%) [7] [%] | IC50 [8] [µM] | IC50 [9] [µM] | 24 hr Dox Inducible IL2FLGluc 293FRT/TO: IL2/PD1 [9] | 48 hr H929 Viability Celltiter-Glo: Mean EC50 (nM) [3] |
| --- | --- | --- | --- | --- | --- | --- | --- | --- | --- | --- | --- | --- | --- |
| [2H]C([2H])(c1ccnc(F)c1)n1cc(Cl)cc1C(=O)Nc1nc(/C=C/c2ncn(C3CC3)c2Cl)cs1 [Compound A11, (E)-4-chloro-N-(4-(2-(5-chloro-1-cyclopropyl-1H-imidazol-4-yl)vinyl)thiazol-2-yl)-1-((2-fluoropyridin-4-yl)methyl-d2)-1H-pyrrole-2-carboxamide] | > 25 | 1.2 | 112 | 11.9 | 6 | 14 | 87 | 1.46 | 17 | 0.011 | 1.18 | 110 | – |
| COc1cc(C(=O)Nc2nc(/C=C/c3ncn(C4CC4)c3Cl)cs2)n(Cc2ccnc(F)c2)c1 [Compound A13, (E)-N-(4-(2-(5-chloro-1-cyclopropyl-1H-imidazol-4-yl)vinyl)thiazol-2-yl)-1-((2-fluoropyridin-4-yl)methyl)-4-methoxy-1H-pyrrole-2-carboxamide] | > 25 | 2.56 | 489 | > 25 | 9 | 48 | 16 | 2.03 | 62 | 0.005 | 2.31 | 440 | – |
| [2H]C([2H])(c1ccnc(F)c1)n1cc(OC)cc1C(=O)Nc1nc(/C=C/c2ncn(C3CC3)c2Cl)cs1 [Compound A14, (E)-N-(4-(2-(5-chloro-1-cyclopropyl-1H-imidazol-4-yl)vinyl)thiazol-2-yl)-1-((2-fluoropyridin-4-yl)methyl-d2)-4-methoxy-1H-pyrrole-2-carboxamide] | > 25 | 2.11 | 318 | > 25 | 4 | 29 | 76 | 3.31 | 20 | 0.007 | 3.44 | 520 | – |
| O=C(Nc1nc(/C=C/c2ncn(C3CC3)c2Cl)cs1)c1cc(OC(F)F)cn1Cc1ccnc(F)c1 [Compound A15, (E)-N-(4-(2-(5-chloro-1-cyclopropyl-1H-imidazol-4-yl)vinyl)thiazol-2-yl)-4-(difluoromethoxy)-1-((2-fluoropyridin-4-yl)methyl)-1H-pyrrole-2-carboxamide] | > 25 | 2.07 | 345 | – | 57 | 73 | 100 | 3.23 | 55 | 0.006 | 2.94 | 490 | I.A |
| [2H]C([2H])(c1ccnc(F)c1)n1cc(OC(F)F)cc1C(=O)Nc1nc(/C=C/c2ncn(C3CC3)c2Cl)cs1 [Compound A16, (E)-N-(4-(2-(5-chloro-1-cyclopropyl-1H-imidazol-4-yl)vinyl)thiazol-2-yl)-4-(difluoromethoxy)-1-((2-fluoropyridin-4-yl)methyl-d2)-1H-pyrrole-2-carboxamide] | > 25 | 2.15 | 339 | > 25 | 58 | 83 | 81 | 2.8 | 56 | 0.006 | 2.91 | 460 | – |
| CCOc1cc(C(=O)Nc2nc(/C=C/c3ncn(C4CC4)c3Cl)cs2)n(Cc2ccnc(F)c2)c1 [Compound A17, (E)-N-(4-(2-(5-chloro-1-cyclopropyl-1H-imidazol-4-yl)vinyl)thiazol-2-yl)-4-ethoxy-1-((2-fluoropyridin-4-yl)methyl)-1H-pyrrole-2-carboxamide] | > 25 | 2.1 | 240 | – | 17 | 26 | 72 | 2.74 | 2 | 0.009 | 3.02 | 340 | I.A |
